# Where two headings read alike, the source gives them in different places.
# Test system: TNFα secretion from PMA/ionomycin stimulated white blood cells from human buffy coat
# Assay: TNFα secretion assay, PMA/ionomycin stimulation
# Protocol: Various concentrations of each test compound were added at the time of stimulation. […] After the plate was washed with 0.1% Tween 20/PBS, an HRP-luminescent substrate was added to each well and light intensity measured using a LJL Analyst plate luminometer.
compound,measurement,setting,value
C[C@H]1C[C@H]2[C@@H]3CCC4=CC(=O)C=C[C@]4(C)[C@@]3(F)[C@@H](O)C[C@]2(C)[C@@]1(O)C(=O)CO [Betamethasone],inhibition at […],"read-out: inhibition of TNFα secretion, Betamethasone 38 nM, Imipramine nM: 0, 99, 394, 1578, 6311, 25000",35.8%
same,inhibition at […],"read-out: inhibition of TNFα secretion, Betamethasone 38 nM, Nortriptyline nM: 0, 52, 208, 834, 3336, 13000",9.93%
same,inhibition at 2.434 µM,"read-out: inhibition of TNFα secretion, Betamethasone 2434 nM, Nortriptyline nM: 0, 52, 208, 834, 3336, 13000",38.9%
same,inhibition at […],"read-out: percent inhibition of TNFα secretion, Betamethasone 38 nM, Amoxapine nM: 0, 12, 50, 199, 797, 3187",26.3%
same,inhibition at […],"read-out: percent inhibition of TNFα secretion, Betamethasone 38 nM, Clomipramine nM: 0, 45, 178, 712, 2848, 11000",36%
same,inhibition at […],"read-out: percent inhibition of TNFα secretion, Betamethasone 38 nM, Desipramine nM: 0, 50, 200, 799, 3197, 13000",17.3%
same,inhibition at 2.434 µM,"read-out: percent inhibition of TNFα secretion, Betamethasone 2434 nM, Desipramine nM: 0, 50, 200, 799, 3197, 13000",48.9%
"C[C@@H]1C[C@H]2[C@@H]3CCC4=CC(=O)C=C[C@]4(C)[C@@]3(F)[C@@H](O)C[C@]2(C)[C@@]1(O)C(=O)CO [Dexamethasone, dexamethasone]",inhibition at […],"read-out: inhibition of TNFα secretion, Dexamethasone 38 nM, Desipramine nM: 0, 50, 200, 799, 3197, 13000",31.3%
same,inhibition at […],"read-out: inhibition of TNFα secretion, Dexamethasone 38 nM, Imipramine nM: 0, 99, 394, 1578, 6311, 25000",30%
same,inhibition at […],"read-out: inhibition of TNFα secretion, Dexamethasone 38 nM, Nortriptyline nM: 0, 52, 208, 834, 3336, 13000",31%
same,inhibition at […],"read-out: percent inhibition of TNFα secretion, Dexamethasone 38 nM, Amitriptyline nM: 0, 50, 199, 796, 3186, 13000",31.1%
same,inhibition at […],"read-out: percent inhibition of TNFα secretion, Dexamethasone 38 nM, Amoxapine nM: 0, 12, 50, 199, 797, 3187",32%
same,inhibition at […],"read-out: percent inhibition of TNFα secretion, Dexamethasone 38 nM, Clomipramine nM: 0, 45, 178, 712, 2848, 11000",35.6%
"C[C@]12CCC(=O)C=C1CC[C@@H]1[C@@H]2[C@@H](O)C[C@@]2(C)[C@H]1CC[C@]2(O)C(=O)CO [Hydrocortisone, hydrocortisone]",inhibition at […],"read-out: inhibition of TNFα secretion, Hydrocortisone 21 nM, Desipramine nM: 0, 50, 200, 799, 3197, 13000",-1.79%
same,inhibition at […],"read-out: inhibition of TNFα secretion, Hydrocortisone 21 nM, Imipramine nM: 0, 99, 394, 1578, 6311, 25000",-4.17%
same,inhibition at […],"read-out: inhibition of TNFα secretion, Hydrocortisone 21 nM, Nortriptyline nM: 0, 52, 208, 834, 3336, 13000",4.44%
same,inhibition at […],"read-out: inhibition of TNFα secretion, Hydrocortisone 21 nM, Protriptyline nM: 0, 52, 208, 834, 3336, 13000",2.86%
same,inhibition at […],"read-out: inhibition of TNFα secretion, Hydrocortisone 83 nM, Desipramine nM: 0, 50, 200, 799, 3197, 13000",9.01%
same,inhibition at […],"read-out: inhibition of TNFα secretion, Hydrocortisone 83 nM, Imipramine nM: 0, 99, 394, 1578, 6311, 25000",5.91%
same,inhibition at […],"read-out: inhibition of TNFα secretion, Hydrocortisone 83 nM, Nortriptyline nM: 0, 52, 208, 834, 3336, 13000",13.6%
same,inhibition at […],"read-out: inhibition of TNFα secretion, Hydrocortisone 83 nM, Protriptyline nM: 0, 52, 208, 834, 3336, 13000",13.6%
same,inhibition at 1.324 µM,"read-out: inhibition of TNFα secretion, Hydrocortisone 1324 nM, Desipramine nM: 0, 50, 200, 799, 3197, 13000",34.4%
same,inhibition at 1.324 µM,"read-out: inhibition of TNFα secretion, Hydrocortisone 1324 nM, Imipramine nM: 0, 99, 394, 1578, 6311, 25000",30.3%
same,inhibition at 1.324 µM,"read-out: inhibition of TNFα secretion, Hydrocortisone 1324 nM, Nortriptyline nM: 0, 52, 208, 834, 3336, 13000",35.7%
same,inhibition at 1.324 µM,"read-out: inhibition of TNFα secretion, Hydrocortisone 1324 nM, Protriptyline nM: 0, 52, 208, 834, 3336, 13000",36.8%
same,inhibition at 5.297 µM,"read-out: inhibition of TNFα secretion, Hydrocortisone 5297 nM, Desipramine nM: 0, 50, 200, 799, 3197, 13000",38.6%
same,inhibition at 5.297 µM,"read-out: inhibition of TNFα secretion, Hydrocortisone 5297 nM, Imipramine nM: 0, 99, 394, 1578, 6311, 25000",33.8%
same,inhibition at 5.297 µM,"read-out: inhibition of TNFα secretion, Hydrocortisone 5297 nM, Nortriptyline nM: 0, 52, 208, 834, 3336, 13000",36.5%
same,inhibition at 5.297 µM,"read-out: inhibition of TNFα secretion, Hydrocortisone 5297 nM, Protriptyline nM: 0, 52, 208, 834, 3336, 13000",38.2%
same,inhibition at […],"read-out: percent inhibition of TNFα secretion, Hydrocortisone 21 nM, Amitriptyline nM: 0, 50, 199, 796, 3186, 13000",-2.95%
same,inhibition at […],"read-out: percent inhibition of TNFα secretion, Hydrocortisone 21 nM, Amoxapine nM: 0, 12, 50, 199, 797, 3187",1.78%
same,inhibition at […],"read-out: percent inhibition of TNFα secretion, Hydrocortisone 21 nM, Clomipramine nM: 0, 45, 178, 712, 2848, 11000",-0.248%
same,inhibition at […],"read-out: percent inhibition of TNFα secretion, Hydrocortisone 83 nM, Amitriptyline nM: 0, 50, 199, 796, 3186, 13000",5.95%
same,inhibition at […],"read-out: percent inhibition of TNFα secretion, Hydrocortisone 83 nM, Amoxapine nM: 0, 12, 50, 199, 797, 3187",11.4%
same,inhibition at […],"read-out: percent inhibition of TNFα secretion, Hydrocortisone 83 nM, Clomipramine nM: 0, 45, 178, 712, 2848, 11000",9.9%
same,inhibition at 1.324 µM,"read-out: percent inhibition of TNFα secretion, Hydrocortisone 1324 nM, Amitriptyline nM: 0, 50, 199, 796, 3186, 13000",32.2%
same,inhibition at 1.324 µM,"read-out: percent inhibition of TNFα secretion, Hydrocortisone 1324 nM, Amoxapine nM: 0, 12, 50, 199, 797, 3187",31.6%
same,inhibition at 1.324 µM,"read-out: percent inhibition of TNFα secretion, Hydrocortisone 1324 nM, Clomipramine nM: 0, 45, 178, 712, 2848, 11000",33%
same,inhibition at 5.297 µM,"read-out: percent inhibition of TNFα secretion, Hydrocortisone 5297 nM, Amitriptyline nM: 0, 50, 199, 796, 3186, 13000",36.9%
same,inhibition at 5.297 µM,"read-out: percent inhibition of TNFα secretion, Hydrocortisone 5297 nM, Amoxapine nM: 0, 12, 50, 199, 797, 3187",31.9%
same,inhibition at 5.297 µM,"read-out: percent inhibition of TNFα secretion, Hydrocortisone 5297 nM, Clomipramine nM: 0, 45, 178, 712, 2848, 11000",37.1%
CC(=O)OCC(=O)[C@@]1(OC(C)=O)[C@@H](C)C[C@H]2[C@@H]3C[C@H](F)C4=CC(=O)C=C[C@]4(C)[C@@]3(F)[C@@H](O)C[C@@]21C [Diflorasone Diacetate],inhibition at 0.03 µM,"read-out: inhibition of TNFα secretion, Diflorasone Diacetate 30 nM, Desipramine nM: 0, 50, 200, 799, 3197, 13000",25.4%
same,inhibition at 0.03 µM,"read-out: inhibition of TNFα secretion, Diflorasone Diacetate 30 nM, Imipramine nM: 0, 99, 394, 1578, 6311, 25000",29.6%
same,inhibition at 0.03 µM,"read-out: inhibition of TNFα secretion, Diflorasone Diacetate 30 nM, Protriptyline nM: 0, 52, 208, 834, 3336, 13000",28.2%
same,inhibition at 1.941 µM,"read-out: inhibition of TNFα secretion, Diflorasone Diacetate 1941 nM, Desipramine nM: 0, 50, 200, 799, 3197, 13000",46.9%
same,inhibition at 1.941 µM,"read-out: inhibition of TNFα secretion, Diflorasone Diacetate 1941 nM, Imipramine nM: 0, 99, 394, 1578, 6311, 25000",45.8%
same,inhibition at 1.941 µM,"read-out: inhibition of TNFα secretion, Diflorasone Diacetate 1941 nM, Protriptyline nM: 0, 52, 208, 834, 3336, 13000",45.3%
same,inhibition at 0.03 µM,"read-out: percent inhibition of TNFα secretion, Diflorasone Diacetate 30 nM, Amitriptyline nM: 0, 50, 199, 796, 3186, 13000",26.1%
same,inhibition at […],"read-out: percent inhibition of TNFα secretion, Diflorasone Diacetate 38 nM, Clomipramine nM by grid row: r5 0, r6 12, r7 50, r8 199, r9 797, r10 3187",43.2%
same,inhibition at 1.941 µM,"read-out: percent inhibition of TNFα secretion, Diflorasone Diacetate 1941 nM, Amitriptyline nM: 0, 50, 199, 796, 3186, 13000",45.2%
"CCCC1O[C@@H]2C[C@H]3[C@@H]4CCC5=CC(=O)C=C[C@]5(C)[C@H]4[C@@H](O)C[C@]3(C)[C@]2(C(=O)CO)O1 (stereo partly drawn) [Budesonide, budesonide]",inhibition at […],"read-out: inhibition of TNFα secretion, Budesonide 35 nM, Imipramine nM: 0, 99, 394, 1578, 6311, 25000",42.1%
same,inhibition at […],"read-out: inhibition of TNFα secretion, Budesonide 35 nM, Nortriptyline nM: 0, 52, 208, 834, 3336, 13000",36%
same,inhibition at […],"read-out: inhibition of TNFα secretion, Budesonide 35 nM, Protriptyline nM: 0, 52, 208, 834, 3336, 13000",44.5%
same,inhibition at […],"read-out: percent inhibition of TNFα secretion, Budesonide 35 nM, Amitriptyline nM: 0, 50, 199, 796, 3186, 13000",42%
same,inhibition at […],"read-out: percent inhibition of TNFα secretion, Budesonide 35 nM, Amoxapine nM: 0, 12, 50, 199, 797, 3187",36.7%
same,inhibition at […],"read-out: percent inhibition of TNFα secretion, Budesonide 35 nM, Clomipramine nM: 0, 45, 178, 712, 2848, 11000",45.3%
same,inhibition at […],"read-out: percent inhibition of TNFα secretion, Budesonide 35 nM, Desipramine nM: 0, 50, 200, 799, 3197, 13000",48.1%

# Reference: patent US20090075951A1, “Methods and Reagents for the Treatment of Inflammatory Disorders” (CombinatoRx, Inc., priority 2003, published 2009)
